Source: patent publication US6881419B2, “Vitamin formulation for enhancing bone strength” (priority 2002, dated 2005)

Test system: osteoporosis
Experiment: Case Study-1: bone scan, tolerability and energy in a subject with osteoporosis and rheumatoid arthritis
Settings: person, placed on it at diagnosis of osteoporosis
Excerpt: The exemplary case studies utilize subjects ranging from fifty-one (51) to eighty-three (83) years of age.

SMILES: NCCCC(O)(P(=O)([O-])O)P(=O)(O)O.[Na+] [Fosimex]
- Tolerability (stomach problems which developed into an ulcer): unable to tolerate
